Data as given in ChEMBL document CHEMBL5223118, “Magnet for the Needle in Haystack: "Crystal Structure First" Fragment Hits Unlock Active Chemical Matter Using Targeted Exploration of Vast Chemical Spaces” (J Med Chem, 2022).

target: cAMP-dependent protein kinase (PKA) (Homo sapiens, UniProt P22694+P17612+P22612); assay: Inhibition of PKA (unknown origin); type: protein assay

**Q.** `Cc1cc(C(=O)Nc2ccncc2)c(C)o1` was tested. Which Ki did it give?
**A.** Its Ki is 20000 µM.

**Q.** `N#Cc1c(N2CCCC2)n[nH]c1N` was tested. Which Ki did it give?
**A.** The Ki was 5000 µM.

**Q.** How did the Ki turn out when `N#Cc1c(N)ccc(/C=C2/CCCNC2)c1Cl` was run?
**A.** The Ki was 85 µM.

**Q.** How did the Ki turn out when `COC1(CNC(=O)N2CCN(c3ccncc3C)CC2)CCCS(=O)(=O)C1` (stereo unspecified) was run?
**A.** Its Ki is 354.3 µM.

**Q.** How did the Ki turn out when `N[C@H]1CCN(Cc2cccc(-c3ccc4c(O)nccc4c3)c2)C1` was run?
**A.** The Ki was 0.74 µM.

**Q.** For `N#Cc1c(N)ccnc1C=C1CCNCC1`, which Ki is on record?
**A.** Its Ki is 6379 µM.

**Q.** How did the Ki turn out when `N#Cc1cc(-c2cccc(C3CNCCO3)c2)ccc1N` (stereo unspecified) was run?
**A.** The Ki was 2101 µM.

**Q.** For `NCCC1CN(C(=O)c2ccc(C(N)=O)cc2)c2ccccc21` (stereo unspecified), which Ki is on record?
**A.** Its Ki is 5000 µM.

**Q.** `N#Cc1cc(-c2cccc(C3COCCN3)c2)ccc1N` (stereo unspecified) was tested. Which Ki did it give?
**A.** Its Ki is 955 µM.

**Q.** How did the Ki turn out when `COCC1CN=C(N2CCN(c3ccncc3Cl)CC2)N1.I` (stereo unspecified) was run?
**A.** Its Ki is 139.3 µM.

**Q.** How did the Ki turn out when `CC1(CS(=O)(=O)N2CCc3c(sc(N)c3C#N)C2)CC1(F)F` (stereo unspecified) was run?
**A.** Its Ki is 4743 µM.

**Q.** For `N#Cc1cc(-c2cccc(C3(CN)CCOCC3)c2)ccc1N`, which Ki is on record?
**A.** Its Ki is 390.2 µM.

**Q.** How did the Ki turn out when `COc1cc(NCCNc2ccnc(N)c2C#N)cc(OC)c1` was run?
**A.** The Ki was 588 µM.

**Q.** With `CN(C)Cc1ccc(F)c(-c2ccc3c(C#N)c(N)[nH]c3c2)c1` as the molecule, how does the Ki read?
**A.** The Ki was 174.4 µM.

**Q.** For `N[C@@H]1CCN(Cc2cccc(-c3ccc4c(O)nccc4c3)c2)C1`, which Ki is on record?
**A.** Its Ki is 3 µM.

**Q.** For `O=c1[nH]ccc2cc(-c3cccc(Cn4cccn4)c3)ccc12`, which Ki is on record?
**A.** Its Ki is 154.7 µM.

**Q.** With `CCn1cc(-c2csc3c(=O)[nH]ccc23)cn1` as the molecule, how does the Ki read?
**A.** Its Ki is 1423 µM.

**Q.** Which Ki does the source give for `NC1C=C(C(F)(F)F)C=NC1=O` (stereo unspecified) here?
**A.** The Ki was 10000 µM.

**Q.** How did the Ki turn out when `COCC1CCC(NC(=O)c2ccc3c(c2)CCNC3=O)CC1` (stereo unspecified) was run?
**A.** The Ki was 6219 µM.

**Q.** How did the Ki turn out when `N#Cc1cc(-c2cccc(CC(N)CC3CC3)c2)ccc1N` (stereo unspecified) was run?
**A.** Its Ki is 540 µM.

**Q.** With `NC1CCN(Cc2cccc(-c3ccc4c(O)nccc4c3)c2)C1` (racemic) as the molecule, how does the Ki read?
**A.** The Ki was 0.744 µM.
